Key:
[1] = biological target: T1, MAGL (Homo sapiens, UniProt Q99685); experiment: MAGL inhibitory assay; assay type: biochemical
T1 construct: purchased Cayman 10007812
T1 sequence (Q99685 1-303): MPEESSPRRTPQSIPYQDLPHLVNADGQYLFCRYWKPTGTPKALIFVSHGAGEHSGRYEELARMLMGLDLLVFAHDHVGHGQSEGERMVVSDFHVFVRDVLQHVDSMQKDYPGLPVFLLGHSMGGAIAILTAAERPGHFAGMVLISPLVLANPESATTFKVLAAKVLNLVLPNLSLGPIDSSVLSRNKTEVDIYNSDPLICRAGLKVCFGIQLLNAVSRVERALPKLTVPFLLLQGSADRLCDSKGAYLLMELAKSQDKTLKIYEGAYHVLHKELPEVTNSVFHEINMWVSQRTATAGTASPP
Protocol: Each study was performed in duplicate and the results averaged.
The final concentration in each well was 10 μl of sample, 5.6 μM MAGL (Cayman Catalog #10007812) and 23.6 μM 2-Arachidonoyl Glycerol (Cayman catalog #62160).

[2] = biological target: T2, FAAH (Homo sapiens, UniProt O00519); experiment: FAAH fluorescence-based inhibitory assay; assay type: biochemical
T2 sequence (O00519 1-579): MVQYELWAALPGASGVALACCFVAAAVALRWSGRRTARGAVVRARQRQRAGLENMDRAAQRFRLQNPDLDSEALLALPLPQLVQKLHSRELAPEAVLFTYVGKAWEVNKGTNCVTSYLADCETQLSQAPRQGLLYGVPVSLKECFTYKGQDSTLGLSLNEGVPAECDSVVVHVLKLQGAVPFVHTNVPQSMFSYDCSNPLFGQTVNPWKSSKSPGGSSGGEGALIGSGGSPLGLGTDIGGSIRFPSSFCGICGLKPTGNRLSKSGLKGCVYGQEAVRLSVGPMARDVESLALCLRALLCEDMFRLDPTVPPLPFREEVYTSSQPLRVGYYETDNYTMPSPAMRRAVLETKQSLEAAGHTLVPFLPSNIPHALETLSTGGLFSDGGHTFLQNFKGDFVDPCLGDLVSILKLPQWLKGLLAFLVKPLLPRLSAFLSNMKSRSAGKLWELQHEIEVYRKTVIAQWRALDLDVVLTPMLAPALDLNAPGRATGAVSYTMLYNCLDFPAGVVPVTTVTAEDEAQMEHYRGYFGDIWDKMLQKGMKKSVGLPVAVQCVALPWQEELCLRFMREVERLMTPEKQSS

[3] = biological target: T3, FABP-3 (Homo sapiens, UniProt P05413); experiment: FABP-3 ELISA inhibitory assay; assay type: biochemical
T3 construct: purchased Neovateinbio PT-452

[4] = biological target: T4, FABP-5 (Homo sapiens, UniProt Q01469); experiment: FABP-5 ELISA inhibitory assay; assay type: biochemical
T4 construct: purchased Raybiotech 268-10276-1

[5] = biological target: HDAC 4 (Homo sapiens, UniProt P56524); experiment: HDAC 4 fluorogenic assay kit
Chain of HDAC 4 (P56524 whole entry): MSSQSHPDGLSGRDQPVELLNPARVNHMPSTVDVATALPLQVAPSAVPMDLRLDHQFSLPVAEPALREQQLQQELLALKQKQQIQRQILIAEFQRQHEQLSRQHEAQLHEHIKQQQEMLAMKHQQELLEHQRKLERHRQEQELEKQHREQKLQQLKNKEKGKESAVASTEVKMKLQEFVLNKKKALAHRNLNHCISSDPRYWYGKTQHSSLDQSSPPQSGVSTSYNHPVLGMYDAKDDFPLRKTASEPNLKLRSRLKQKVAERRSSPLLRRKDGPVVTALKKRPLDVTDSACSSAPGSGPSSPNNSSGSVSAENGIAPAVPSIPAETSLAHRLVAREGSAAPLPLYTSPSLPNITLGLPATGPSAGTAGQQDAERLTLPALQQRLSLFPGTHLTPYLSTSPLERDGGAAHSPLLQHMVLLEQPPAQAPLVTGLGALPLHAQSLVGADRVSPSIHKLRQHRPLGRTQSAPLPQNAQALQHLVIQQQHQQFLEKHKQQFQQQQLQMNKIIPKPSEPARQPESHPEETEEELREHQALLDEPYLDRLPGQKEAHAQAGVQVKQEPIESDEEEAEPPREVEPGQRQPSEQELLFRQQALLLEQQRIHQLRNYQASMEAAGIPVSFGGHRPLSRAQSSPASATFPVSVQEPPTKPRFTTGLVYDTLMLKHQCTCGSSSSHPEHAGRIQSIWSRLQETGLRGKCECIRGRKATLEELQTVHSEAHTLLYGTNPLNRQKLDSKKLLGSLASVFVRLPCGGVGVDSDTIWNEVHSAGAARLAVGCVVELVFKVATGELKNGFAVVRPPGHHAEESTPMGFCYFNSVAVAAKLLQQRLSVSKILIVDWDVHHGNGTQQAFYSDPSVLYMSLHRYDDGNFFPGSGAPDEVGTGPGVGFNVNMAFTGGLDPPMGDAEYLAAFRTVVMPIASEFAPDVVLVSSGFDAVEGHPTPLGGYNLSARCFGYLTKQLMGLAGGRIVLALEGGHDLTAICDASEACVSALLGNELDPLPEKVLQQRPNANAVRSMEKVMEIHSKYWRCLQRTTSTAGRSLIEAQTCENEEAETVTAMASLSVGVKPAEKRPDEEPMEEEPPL

T4 sequence (Q01469 whole entry): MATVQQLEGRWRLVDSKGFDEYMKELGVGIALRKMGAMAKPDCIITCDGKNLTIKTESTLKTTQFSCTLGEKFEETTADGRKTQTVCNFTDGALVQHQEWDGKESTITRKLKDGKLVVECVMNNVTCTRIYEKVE
T3 sequence (P05413 whole entry): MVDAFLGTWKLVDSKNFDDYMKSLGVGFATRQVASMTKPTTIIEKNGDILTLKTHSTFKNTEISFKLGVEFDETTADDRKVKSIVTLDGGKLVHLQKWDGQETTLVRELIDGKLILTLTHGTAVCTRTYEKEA

Substance: calcium dilysinate [Ca dilysinate]
- MAGL IC50 [1]: 856.0 mg/L
- FAAH IC50 [2]: 445.1 mg/L
- FABP-3 IC50 [3]: 208.6 mg/L
- FABP-5 IC50 [4]: 871.4 mg/L
- HDAC 4 activity, % of water-treated controls ([5]; 25 ug/ml): 109%
- HDAC 4 activity, % of water-treated controls ([5]; 50 ug/ml): 101%
- HDAC 4 activity, % of water-treated controls ([5]; 100 ug/ml): 107%

From patent US20260041620A1, “NOVEL AMINO ACID BASED SALTS, COMPOSITIONS AND METHODS FOR TREATING SKIN AND IMPROVING SKIN REJUVENATION AND LONGEVITY” (Sytheon Ltd, priority 2023, published 2026)
